Measured values published in patent publication US20260256921A1, “BIFUNCTIONAL MOLECULES TO TARGET DEGRADATION OF TUMOR NECROSIS FACTOR” (Biohaven Therapeutics Ltd., priority 2023, published 2026).

target: T1, human TNF-α (Homo sapiens, UniProt P01375); assay: TNF-α thermal melt assay; assay type: binding; set-up: Amino acids 77-233 of Human TNF-α protein with an N-terminal GST tag; GST (N, cleaved yes); made in house; host or cells: Escherichia coli (BL21 NiCo); conditions: not given
Description: Protein was purified using glutathione agarose purification columns (Pierce™, Waltham, MA, USA). Following purification, the GST tag was removed using HRV3c protease (Pierce™, Waltham, MA, USA) and the GST tag and the TNF-α were separated via ion exchange chromatography using a 20 mM HEPES pH 8.0 buffer system ramping from 0 to 1 M NaCl over 12 column volumes with 5 ml of Q Sepharose (HiScreen Q HP, Cytiva™, Marlborough, MA, USA). The final protein includes the amino acids GPLGSG at the N-terminus of the protein.
Protein was heated from 20° C. to 95° C. at one degree per minute in a Roche Opus384 qPCR machine.
Target sequence in this assay (P01375 77-233): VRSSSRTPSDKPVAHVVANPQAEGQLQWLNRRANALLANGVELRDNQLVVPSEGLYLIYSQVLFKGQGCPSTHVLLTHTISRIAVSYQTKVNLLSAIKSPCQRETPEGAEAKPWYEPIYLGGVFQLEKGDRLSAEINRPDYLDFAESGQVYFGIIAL

`CN1CCN(Cc2ccc(-c3c[nH]c4ccncc34)c(OCCc3ccc(-c4cccc5ccncc45)cc3)c2)CC1` [Intermediate 25] was tested, and the Kd was under 1 nM.

same assay, conditions: thermal melt, SYPRO Orange, Kd calculated as in Matulis et al.; read-out: TM Kd

First: CC(C)(C)OC(=O)CCOCCOCCC(=O)N1CCN(Cc2ccc(-c3c[nH]c4ccncc34)c(OCCc3ccc(-c4cccc5ccncc45)cc3)c2)CC1 [Intermediate 23]
Second: O=C(O)CCOCCOCCC(=O)N1CCN(Cc2ccc(-c3c[nH]c4ccncc34)c(OCCc3ccc(-c4cccc5ccncc45)cc3)c2)CC1 [Intermediate 24]
The Kd of the first is 7.1-fold lower: 31 nM for the first, 220 nM for the second. The first binds more tightly here.

Going from `CC(C)(C)OC(=O)CCOCCOCCOCCOCCOCCOCCOCCOCCC(=O)N1CCN(Cc2ccc(-c3c[nH]c4ccncc34)c(OCCc3ccc(-c4cccc5ccncc45)cc3)c2)CC1` [Intermediate 3] to `O=C(O)CCOCCOCCOCCOCCOCCOCCOCCOCCC(=O)N1CCN(Cc2ccc(-c3c[nH]c4ccncc34)c(OCCc3ccc(-c4cccc5ccncc45)cc3)c2)CC1` [Intermediate 4], the Kd falls from 120 nM to 69 nM (1.7-fold).

target: T1, human TNF-α; assay: TNF-α functional assay (hHEK-TNF-α SEAP reporter cells); assay type: cell-based; set-up: purchased ACROBiosystems TNA-H4211; conditions: not given
Description: Human HEK TNF-αcells (hHEK-TNF-α cells; InvivoGen Catalog #hkb-tnfdmyd; San Diego, CA, USA) are human embryonic kidney HEK293 cells that are stably transfected with the reporter gene, secreted alkaline phosphatase (SEAP). The hHEK-TNF-α cells allow for the detection of bioactive human and murine TNF-α via the activation of the NF-kB-inducible promoter and subsequent production of SEAP. Bioactivity of commercial human TNF-α protein (ActiveMax® Human TNF-α Protein, Tag Free, Low Endotoxin; available by ACROBiosystems Catalog #TNA-H4211; Newark, DE, USA) was determined in this reporter system.
Test molecules were dissolved in 100% DMSO and serially diluted by either 3-fold serial dilution or 4-fold serial dilution. […] TNF-α protein was added at the previously determined ECso. Plates containing cells, test molecules, and cytokine were incubated overnight for 18-24 hours at 37° C., 5% CO2.
The level of SEAP in the supernatant of each well was quantified using the Quanti Blue™ Solution (InvivoGen Catalog #rep-qba2; San Diego, CA, USA), a reagent with a colorimetric change in the presence of SEAP. To perform the Quanti-Blue assay: 20 L of the sample supernatant after the overnight 18-24 hour incubation was added to 180 L of Quanti Blue™ Reagent and incubated for 45 minutes at 37° C. […] Inhibition of TNF-α signaling was calculated utilizing GraphPad Prism (San Diego, CA, USA).
Target sequence in this assay (P01375 77-233 limits assumed): as the sequence (P01375 77-233) above

Compound `CN1CCN(Cc2ccc(-c3c[nH]c4ccncc34)c(OCCc3ccc(-c4cccc5ccncc45)cc3)c2)CC1` [Intermediate 25] has an IC50 of 240 nM.

same assay, conditions: hHEK-TNF-α cells, SEAP readout, TNF-α added at EC80 (1.034 pM), 18-24 hours; read-out: TNF-α Function IC50

`CC(C)(C)OC(=O)CCOCCOCCC(=O)N1CCN(Cc2ccc(-c3c[nH]c4ccncc34)c(OCCc3ccc(-c4cccc5ccncc45)cc3)c2)CC1` [Intermediate 23] and `O=C(O)CCOCCOCCC(=O)N1CCN(Cc2ccc(-c3c[nH]c4ccncc34)c(OCCc3ccc(-c4cccc5ccncc45)cc3)c2)CC1` [Intermediate 24] are within 1.5-fold of each other in IC50: 337 nM for the first, 247 nM for the second.

`CC(C)(C)OC(=O)CCOCCOCCOCCOCCOCCOCCC(=O)N1CCN(Cc2ccc(-c3c[nH]c4ccncc34)c(OCCc3ccc(-c4cccc5ccncc45)cc3)c2)CC1` [Intermediate 18] and `CC(C)(C)OC(=O)CCOCCOCCOCCOCCOCCOCCOCCOCCC(=O)N1CCN(Cc2ccc(-c3c[nH]c4ccncc34)c(OCCc3ccc(-c4cccc5ccncc45)cc3)c2)CC1` [Intermediate 3] are within 1.5-fold of each other in IC50: 810 nM for the first, 1000 nM for the second.

Going from `O=C(O)CCOCCOCCOCCOCCOCCOCCC(=O)N1CCN(Cc2ccc(-c3c[nH]c4ccncc34)c(OCCc3ccc(-c4cccc5ccncc45)cc3)c2)CC1` [Intermediate 19] to `O=C(O)CCOCCOCCOCCOCCOCCOCCOCCOCCC(=O)N1CCN(Cc2ccc(-c3c[nH]c4ccncc34)c(OCCc3ccc(-c4cccc5ccncc45)cc3)c2)CC1` [Intermediate 4], the IC50 falls from 370 nM to 230 nM (1.6-fold). The second is the more potent here.
